In US20260109732A1, “LIPID AMINES” (ModernaTX, Inc., priority 2021, published 2026):
Structures can show the parent of a compound that is named as a salt.

Tests used:
HeLa cells [1] = assay: CFTR Protein Expression Assay in HeLa Cells; type: cell-based, Human; settings: LNPs encapsulating CFTR mRNA, N=4 wells; 5 h serum-free then 24 h; immunofluorescence vs PBS control
Protocol: (§1) For HeLa studies evaluating CFTR protein expression, the intermediate nanoparticle formulation (1 mL, 0.415 mg mRNA) is mixed with a buffer containing 20 mM TRIS (pH 7.5), 0.9 mg/mL PEG-DMG-2K and lipid amine SA50 (647.1 nmol) at a volumetric ratio of 6:1 of nanoparticle:buffer. The resulting nanoparticle suspension undergoes concentration using a centrifugal filtration device (100 kDa molecular weight cut-off) and is diluted in running buffer (20 mM TRIS, 14.3 mM sodium acetate, and 32 g/L sucrose, pH 7.5) with a 300 mM NaCl solution to a final buffer matrix containing 70 mM NaCl.
(§2) Lipid nanoparticle compositions were prepared in a manner analogous to that in example 2. To evaluate LNP cellular uptake and protein expression In Vitro, HeLa cells from ATCC.org (ATCC CCL-2) are used. The cells are cultured in complete Minimum Essential Medium (MVEM) and are plated in 96 well Cell Carrier Ultra plate with PDL coated surface (PerkinElmer) prior to running an experiment.
Buffer control (PBS) and LNPs encapsulating cystic fibrosis transmembrane conductance regulator (CFTR) mRNA were dosed with MEM media in the absence of serum (N=4 replicate wells). LNP transfected cells were incubated for 5 h, followed by media removal and supplementation with complete MEM media. Cells were further incubated in complete MEM media overnight (24 h).
Following 24 hr incubation, the cells were fixed with PFA and processed for immunofluorescence (IF) using an anti-CFTR rabbit monoclonal antibody. Briefly, the cells were permeabilized with 0.5% TX-100 for 10 min, blocked with 3% bovine serum albumin (BSA)+PBST for 1 hr at room temperature, and incubated with primary anti-CFTR monoclonal antibody overnight at 4° C. Following primary antibody incubation, the cells were incubated with Alexa 488 conjugated secondary antibody for 30 mi and stained with DAPI and HCS CellMask Blue stain. Between different incubation steps the cells were either washed with PBS or PBST. Cells were imaged using Opera Phoenix spinning disk confocal microscope (PerkinElmer), and CFTR protein expression was detected using the 488 nm channel. The image analysis was performed in Harmony 4.9, with main analysis output being CFTR intensity per cell. The results shown in Table 3b show fold-change in CFTR signal intensity per cell compared to buffer (PBS) control (NA=not available).

[2] = Encapsulation of mRNA nanoparticles with lipid amines using Ribogreen assay; type: physicochemical
Protocol: (§3) Lipids are dissolved in ethanol at a concentration of 24 mg/mL and molar ratios of 49.0:11.2:39.3:0.5 (IL1:DSPC:cholesterol:PEG-DMG-2K) and mixed with the acidification buffer (45 mM acetate buffer at pH 4). The lipid solution and acidification buffer are mixed using a multi-inlet vortex mixer at a 3:7 volumetric ratio of lipid:buffer for mixer 1 and mixer 2 and a 1:3 volumetric ratio of lipid:buffer (25% ethanol) for mixer 3. After a 5 second residence time, the resulting nanoparticles are mixed with 55 mM sodium acetate at pH 5.6 at a volumetric ratio of 5:7 of nanoparticle:buffer. See Table 2a for mixing parameters. The resulting dilute nanoparticles are then buffer exchanged and concentrated using tangential flow filtration (TFF) into a final buffer containing 5 mM sodium acetate pH 5.0. Then a 70% sucrose solution in 5 mM acetate buffer at pH 5 is subsequently added.
(§4) The resulting nanoparticles at a lipid concentration of 7.33 mg/mL in 5 mM acetate (pH 5) and 75 g/L sucrose are mixed with mRNA (luciferease or CFTR) at a concentration of 0.625 mg/mL in 42.5 mM sodium acetate pH 5.0, with N:P of 4.93. The nanoparticle solution and nanoparticles are mixed using a multi-inlet vortex mixer at a 3:2 volumetric ratio of nanoparticle:mRNA. Once loaded with mRNA, these intermediate nanoparticles undergo a 300 second residence time prior addition of neutralization buffer containing 120 mM TRIS pH 8.12 at a volumetric ratio of 5:1 of nanoparticle:buffer.
(§5) For HeLa studies evaluating luciferase protein expression, PEG-DMG-2K dissolved in a 20 mM TRIS buffer (pH 7.5) is added to the neutralized intermediate nanoparticle solution at a ratio of 1:6, bringing the solution to the final molar ratios of IL1:DSPC:cholesterol:PEG-DMG-2K of 48.5:11.1:38.9:1.5%. This nanoparticle formulation is then modified with lipid amines. In a typical example, nanoparticle formulation at a concentration of 0.18 mg/mL mRNA and a 0.56 mL volume is modified with lipid amine SA50 (467.2 nmol) prepared in buffer containing 20 mM TRIS, 14.3 mM sodium acetate, 32 g/L sucrose and 140 mM NaCl-pH 7.5 at a volumetric ratio of 1:1 of nanoparticle:buffer.
as §1
(§6) Both resulting nanoparticle suspensions are filtered through a 0.8/0.2 μm capsule filter and filled into glass vials at an mRNA strength of about 0.1-1 mg/mLBliophysical data (Diameter and PDI from DLS measurements and Encapsualtion using Ribogreen assay) for both luciferase and CFTR mRNA nanoparticles with lipid amines is shown in Tables 2c and d, respectively.

[3] = Diameter and PDI from DLS measurements of mRNA nanoparticles with lipid amines; type: physicochemical
Protocol: as §3, §4, §5, §1, §6

HeLa cells [4] = assay: Luciferase Protein Expression Assay in HeLa Cells; type: cell-based, Human; settings: LNPs encapsulating Luciferase mRNA, 25 ng per well, N=4 wells; 5 h serum-free then 24 h; ONE-Glo
Protocol: as §5, §2
Cells were transfected with buffer control (PBS) or LNPs encapsulating Luciferase mRNA (25 ng per well; N=4 replicate wells) in serum-free MEM media. LNP transfected cells were incubated for 5 h, followed by media removal and supplementation with complete MEM media. Cells were further incubated in complete MEM media overnight (24 h). Following the 24 hr incubation, luciferase protein expression was measured using the ONE-Glo™ Luciferase Assay (Promega). Cells were lysed using 1× Passive Lysis Buffer (Cat. #E194A) for 10 min in a microplate mixer at room temperature. Luciferase in the supernatant was measured by adding Luciferase Assay Reagent (Cat. #E151A) containing luciferin. Bioluminescence was then immediately measured on a Synergy H1 plate reader (BioTek). The results shown in Table 3a show the Average Relative Light Units (RLU) of each sample tested.

[5] = CFTR mRNA nanoparticle with lipid amine
[6] = Luciferase mRNA nanoparticle modified with lipid amine

| Structure (SMILES) | Average fold-change in CFTR signal intensity per cell compared to buffer control ± standard deviation (HeLa cells [1]) [fold-change] | % Encapsulation (Ribogreen) [2, 5] [%] | % Encapsulation (Ribogreen) [2, 6] [%] | Diameter (nm) [3, 5] [nm] | PDI [3, 5] | Diameter (nm) [3, 6] [nm] | PDI [3, 6] | Average Relative Light Units ± Standard Deviation (HeLa cells [4]) [Relative Light Units] |
| --- | --- | --- | --- | --- | --- | --- | --- | --- |
| CC(C)CCC[C@@H](C)[C@H]1CC[C@H]2[C@@H]3CC=C4C[C@@H](OC(=O)CC(=O)N(CCCN)CCCCNCCCN)CC[C@]4(C)[C@H]3CC[C@]12C.Cl.Cl.Cl [SA59, (3S,8S,9S,10R,13R,14S,17R)-10,13-Dimethyl-17-((R)-6-methylheptan-2-yl)-2,3,4,7,8,9,10,11,12,13,14,15,16,17-tetradecahydro-1H-cyclopenta[a]phenanthren-3-yl 3-((3-aminopropyl)(4-((3-aminopropyl)amino)butyl)amino)-3-oxopropanoate trihydrochloride] | 5.6 ± 0.5 | 99.6 | 99.7 | 76.9 | 0.15 | 74 | 0.15 | 17590.1 ± 6267.4 |
| CC(C)CCC[C@@H](C)[C@H]1CC[C@H]2[C@@H]3CC=C4C[C@@H](OC(=O)N(CCCN)CCCCCCCCN)CC[C@]4(C)[C@H]3CC[C@]12C [SA60, (3S,8S,9S,10R,13R,14S,17R)-10,13-Dimethyl-17-((R)-6-methylheptan-2-yl)-2,3,4,7,8,9,10,11,12,13,14,15,16,17-tetradecahydro-1H-cyclopenta[a]phenanthren-3-yl (8-aminooctyl)(3-aminopropyl)carbamate dihydrochloride] | 10.7 ± 0.1 | 99.5 | 98.8 | 70.9 | 0.08 | 74 | 0.13 | 30508.5 ± 6869.7 |
| CC(C)CCC[C@@H](C)[C@H]1CC[C@H]2[C@@H]3CC=C4C[C@@H](OC(=O)N(CCCCNC(C)CCN)C(C)CCN)CC[C@]4(C)[C@H]3CC[C@]12C (stereo partly drawn) [SA74, (3S,8S,9S,10R,13R,14S,17R)-10,13-dimethyl-17-((R)-6-methylheptan-2-yl)-2,3,4,7,8,9,10,11,12,13,14,15,16,17-tetradecahydro-1H-cyclopenta[a]phenanthren-3-yl (4-aminobutan-2-yl)(4-((4-aminobutan-2-yl)amino)butyl)carbamate trihydrochloride] | – | – | 99.1 | – | – | 75 | 0.19 | 23899.2 ± 6943.7 |
| CC[C@H](CC[C@@H](C)[C@H]1CC[C@H]2[C@@H]3CC=C4C[C@@H](OC(=O)N(CCCCNC(C)CCN)C(C)CCN)CC[C@]4(C)[C@H]3CC[C@]12C)C(C)C (stereo partly drawn) [SA113, (3S,8S,9S,10R,13R,14S,17R)-17-((2R,5R)-5-ethyl-6-methylheptan-2-yl)-10,13-dimethyl-2,3,4,7,8,9,10,11,12,13,14,15,16,17-tetradecahydro-1H-cyclopenta[a]phenanthren-3-yl (4-aminobutan-2-yl)(4-((4-aminobutan-2-yl)amino)butyl)carbamate trihydrochloride] | – | – | 99.7 | – | – | 77 | 0.23 | 20665.4 ± 7510.5 |
| CC[C@H](CC[C@@H](C)[C@H]1CC[C@H]2[C@@H]3CC=C4C[C@@H](OC(=O)N(CCCCNCC(F)(F)CN)CC(F)(F)CN)CC[C@]4(C)[C@H]3CC[C@]12C)C(C)C [SA116, (3S,8S,9S,10R,13R,14S,17R)-17-((2R,5R)-5-ethyl-6-methylheptan-2-yl)-10,13-dimethyl-2,3,4,7,8,9,10,11,12,13,14,15,16,17-tetradecahydro-1H-cyclopenta[a]phenanthren-3-yl (3-amino-2,2-difluoropropyl)(4-((3-amino-2,2-difluoropropyl)amino)butyl)carbamate trihydrochloride] | – | – | 97.6 | – | – | 73 | 0.20 | 110.9 ± 26.9 |
| CC(C)CCC[C@@H](C)[C@H]1CC[C@H]2[C@@H]3CC=C4C[C@@H](OC(=O)CN(CCCCCCCCN)C(=O)[C@@H](N)CCCCN)CC[C@]4(C)[C@H]3CC[C@]12C.Cl.Cl.Cl [SA130, (3S,8S,9S,10R,13R,14S,17R)-10,13-dimethyl-17-((R)-6-methylheptan-2-yl)-2,3,4,7,8,9,10,11,12,13,14,15,16,17-tetradecahydro-1H-cyclopenta[a]phenanthren-3-yl N-(L-lysyl)-N-(8-aminooctyl)glycinate trihydrochloride] | 1.0 ± 0 | 95.7 | – | 85.7 | 0.18 | – | – | – |
| CC[C@H](CC[C@@H](C)[C@H]1CC[C@H]2[C@@H]3CC=C4C[C@@H](OC(=O)N(CCCCNC)CCCNC)CC[C@]4(C)[C@H]3CC[C@]12C)C(C)C [SA180, (3S,8S,9S,10R,13R,14S,17R)-17-((2R,5R)-5-ethyl-6-methylheptan-2-yl)-10,13-dimethyl-2,3,4,7,8,9,10,11,12,13,14,15,16,17-tetradecahydro-1H-cyclopenta[a]phenanthren-3-yl (4-(methylamino)butyl)(3-(methylamino)propyl)carbamate dihydrochloride] | – | – | 98.7 | – | – | 76 | 0.17 | 35476 ± 6770.8 |
